Measurements as given in US8586527B2, “Cerivastatin to treat pulmonary disorders” (priority 2011, dated 2013).

Key:
[1] = test system: pulmonary aterial hypertension; conditions: injected intraperitoneally; cited from earlier work
DDAH1 = DDAH1 gene expression (real-time RT-PCR) in endothelial cells; format: cell-based; conditions: human umbilical endothelial cells, 24 hours, FIG. 1A
Experimental: (§1) Human umbilical endothelial cells were seeded in 6-well plates (50,000 cells per well) and incubated with EGM (endothelial cell growth medium with bullet kit, Lonza) overnight. Then, triplicate wells were treated with indicated concentrations of cerivastatin in 2 ml of EGM. After 24 hours, total RNA was extracted using the RNeasy Kit (Qiagen, Valencia, Calif. After reverse transcription (RT) using the High Capacity cDNA Reverse Transcription Kit (Applied Biosystems, Foster City, Calif.), PCR was performed using an ABI Prism 7500 Sequence Detection System (Applied Biosystems, Foster City, Calif.) and QuantiTect SYBR Green PCR Master Mix (Qiagen, Valencia, Calif.). All reactions were carried out in triplicate, and each mRNA copy level was quantified using comparative CT method. Expression of actin was used as an endogenous control in all experiments and relative fold changes were calculated. All data were expressed as the means±standard deviation. The gene-specific forward and reverse primer sequences were • 5′-[…]-3′(SEQ ID NO: 2) and 5′-[…]-3′ (SEQ ID NO: 3) for actin; • 5′-[…]-3′ (SEQ ID NO: 4) and 5′-ggggtgttgaagcaat-3′ (SEQ ID NO: 5) for DDAH-1; • 5′-[…]-3′ (SEQ ID NO: 6) and 5′-[…]-3′ (SEQ ID NO: 7) for DDAH-2.

DDAH2 = DDAH2 gene expression (real-time RT-PCR) in endothelial cells; format: cell-based; conditions: human umbilical endothelial cells, 24 hours, dose dependent, FIG. 1B
Experimental: as §1

CCR2 = CCR2 gene expression (real-time RT-PCR) in THP-1 cells; format: cell-based; conditions: human THP-1 cells, TNF-α + 10 μM statin, FIG. 2B
Experimental: THP-1 cells were obtained from the American Tissue Type Culture Collection (ATCC). Cells were maintained in RPMI-1640 (Mediatech, Manassas, Va.) containing 10% fetal bovine serum (FBS; Sigma-Aldrich) and 1% penicillin/streptomycin (Sigma-Aldrich), and incubated in a humidified incubator containing 5% CO2/95% air at 37° C. In all experiments, cells were seeded at the concentration of 5×10^5 cells/mL in 12 well plates and then various statins were added to the medium. After 1 h, […] at a final concentration of 100 ng/ml or TNF-[…] at a final concentration of 10 ng/mL was added to the cultures. Cell pellets were collected for RNA and protein isolation.
Total RNA was extracted using the RNeasy Kit (Qiagen, Valencia, Calif.) according to the manufacturer's instructions. After reverse transcription (RT) using the High Capacity cDNA Reverse Transcription Kit (Applied Biosystems, Foster City, Calif.), PCR was performed using an ABI Prism 7500 Sequence Detection System (Applied Biosystems, Foster City, Calif.) and QuantiTect SYBR Green PCR Master Mix (Qiagen, Valencia, Calif.). All reactions were carried out in triplicate, and each mRNA copy level was quantified using comparative CT method. Expression of actin was used as an endogenous control in all experiments and relative fold changes were calculated. All data were expressed as the means±standard deviation. […]

rat model of PAH [2] = test: PA pressure by right heart catheterization in MCT rat model of PAH; format: in vivo; conditions: intratracheal, twice weekly, 2 mg/ml in PBS, day 42, relative to MCT injection PAH model
Experimental: (§2) PAH was induced in adult male Sprague-Dawley rats (˜375 to 425 g, n=12, Harlan Laboratories) by a single, subcutaneous injection of monocrotnil (MCT) (60 mg/kg; n=24). Schultze, A. E. and Roth, R. A. J. Toxicol. Environ. Health. B, Crit. Rev. 1(4): 271-346 (1998). The animals injected with MCT were randomly assigned to 2 groups that received intratracheal (I.T.) aerosol instillation (MicroSprayer® Aerosolizer Model IA-1B, PennCentury, Inc.) of PBS twice weekly (200 μl; n=6), and a second group received IT. aerosol instillation of Cerivastatin twice weekly (2 mg/ml in PBS; n=6 I.T. instillations of PBS and Cerivastatin were administered the day of MCT injection until the rats were euthanized on day 42.
Echocardiography was performed at day 14, 28, and 42. Right heart catheterization was performed on day 42 before being euthanized. Sedation was induced by placing the rat in an anesthesia induction chamber with gas flow at 1 l/min, and the isoflurane was delivered via vaporizer at 3-4%. After induction, the rat was intubated and remained anesthetized with inhalant isoflurane at 1% for echo and 2% for right heart catheterization.
A 1.4-F micromanometer-tipped Millar pressure catheter (Millar Instruments) was used to measure systolic (sPAP), mean (mPAP), and diastolic PA pressure (dPAP) in all rats. […]

rat model of PAH [3] = test: Echocardiography in MCT rat model of PAH; format: in vivo; conditions: intratracheal, twice weekly, 2 mg/ml in PBS
Experimental: PAH was induced in adult male Sprague-Dawley rats ( 375 to 425 g, n=12, Harlan Laboratories) by a single, subcutaneous injection of monocrotnil (MCT) (60 mg/kg; n=24). Schultze, A. E. and Roth, R. A. J. Toxicol. Environ. Health. B, Crit. Rev. 1(4): 271-346 (1998). The animals injected with MCT were randomly assigned to 2 groups that received intratracheal (I.T.) aerosol instillation (MicroSprayer® Aerosolizer Model IA-1B, PennCentury, Inc.) of PBS twice weekly (200 μl; n=6), and a second group received IT. aerosol instillation of Cerivastatin twice weekly (2 mg/ml in PBS; n=6 I.T. instillations of PBS and Cerivastatin were administered the day of MCT injection until the rats were euthanized on day 42. Echocardiography was performed at day 14, 28, and 42. Right heart catheterization was performed on day 42 before being euthanized. Sedation was induced by placing the rat in an anesthesia induction chamber with gas flow at 1 l/min, and the isoflurane was delivered via vaporizer at 3-4%. After induction, the rat was intubated and remained anesthetized with inhalant isoflurane at 1% for echo and 2% for right heart catheterization. After shaving the chest, 70% isopropyl alcohol was applied as the ultrasound transmission media and transthoracic echocardiography was performed (GE vivid i with […]-RS linear array transducer, 5.0-13.0 MHz). The 2-D modality was applied to measure PA diameter at the level of the pulmonary outflow tract from the parasternal short-axis view. PA acceleration time (PAAT) and PA flow velocity time integral (VTI) were measured using pulse-wave Doppler with the sample volume centrally positioned in the PA distal to the pulmonary valve. Angle correction was used to adjust the pulse-wave cursor such that it was positioned parallel to pulmonary artery flow. By combining PA VTI with the PA cross-sectional area, echocardiographically derived stroke volume was determined. M-mode was applied to measure right ventricular cavity thickness during end diastole using the parasternal long-axis view obtained from the right side of the rat.

rat model of PAH [4] = test: RV hypertrophy (RV weight ratio) in MCT rat model of PAH; format: in vivo; conditions: intratracheal, twice weekly, 2 mg/ml in PBS, day 42, relative to MCT injection PAH model, FIG. 6
Experimental: as §2, with “42. After recording hemodynamic measurements and collecting blood, the animals were euthanized under deep anesthesia (isoflurane 5%) and the lungs and heart were isolated. The RV free wall was dissected from the left ventricle and interventricular septum (IVS), and the wet weight of each was recorded. RV hypertrophy was obtained as a RV weight/(LV+IVS weights) ratio.” for “42.”

Row | SMILES | improvement of pulmonary arterial hypertension [1] | effect on the expression of DDAH1 (relative mRNA level) (DDAH1) | effect on the expression of DDAH2 (relative mRNA level) (DDAH2) | CCR2 expression (CCR2) | systolic pulmonary artery pressure (sPAP) (rat model of PAH [2]; FIG. 3) | mean pulmonary artery pressure (mPAP) (rat model of PAH [2]; FIG. 4) | pulmonary artery acceleration time (PAAT) (rat model of PAH [3]; FIG. 7A (plotted in ms)) | mean right ventricle thickening (RV cavity thickness) (rat model of PAH [3]; relative to MCT injection PAH model, FIGS. 5A and 5B) | PAAT as percent of the control (rat model of PAH [3]; MCT alone 40.5% of the control, FIG. 7B) | right ventricular (RV) weight ratio (RV/(LV+septum)) (rat model of PAH [4])
1 | CC(C)c1c(C(=O)Nc2ccccc2)c(-c2ccccc2)c(-c2ccc(F)cc2)n1CC[C@@H](O)C[C@@H](O)CC(=O)O [atorvastatin] | not | – | – | – | – | – | – | – | – | –
2 | COCc1c(C(C)C)nc(C(C)C)c(/C=C/[C@@H](O)C[C@@H](O)CC(=O)O)c1-c1ccc(F)cc1 [cerivastatin, (3R,5S,6E)-7-[4-(4-fluorophenyl)-5-(methoxymethyl)-2,6-bis(propan-2-yl)pyridin-3-yl]-3,5-dihydroxyhept-6-enoic acid] | – | relatively small and non-concentration dependent effect | more than 600% | reduces CCR2 | statistically significant decrease | statistically significant decrease | significantly increased | significantly reduced | 60.7 % of the control | significantly reduced
